Reference: patent publication US8859615B2, “Compounds, compositions and methods for reducing toxicity and treating or preventing diseases” (priority 2008, dated 2014)
Where two headings read alike, the source gives them in different places.

Legend:
[1] = test system: quinone reductase (NQO1) in Hepa 1c1c7 murine hepatoma cells; settings: for comparison; cited from earlier work
[2] = test system: human lymphoblastic leukemic T-cell growth; test: Cytotoxic activity relative to stability during storage at −20° C. in DMSO (Table 10); format: cell-based; settings: for IC50: Homo sapiens, CCRF-CEM, 72 h, Table 10, XTT, 72 hr
Text: Without wishing to be bound by theory, the oxidized versions may be active metabolites. This theory provides an explanation of the delayed onset of therapeutic effects seen in the figures herein. The oxidized compounds may be active agents that are formed slowly upon metabolic oxidation. […] The active metabolites may explain the biphasic pharmacological properties of panaxytriol or Compound D that have been observed (FIGS. 9B, C, D; FIGS. 11D, E, F, and FIGS. 12D, E). […] Induction of the phase 2 enzymes may slow oxidation of the compounds (Ng et al., Tetrahedron Letters. 49: 7178-7179 (2008)).

[3] = test system: human PBMC lymphocytes; test: DNA synthesis ([3H]thymidine incorporation) in human PBMC lymphocytes (FIG. 8); format: cell-based
Text: FIG. 8 show the effects of PHA and different concentrations of compounds of the invention, at different time points, on the proliferation of a culture of human lymphocytes as measured by DNA synthesis through incorporation of radiolabeled thymidine into the DNA.
The main principle and method of experiments for human PBMC lymphocytes and for mouse splenocytes stimulations were the same, since both measure immunological cell stimulation by PHA, PXT and compounds of the invention. Both the lymphocyte and the splenocyte assays measure the ^3H-dThd tracer as an indication of DNA synthesis. For PBMC lymphocytes (FIGS. 9A-9G), the experimental methods are those for splenocytes disclosed in Example 24 (FIGS. 11A-11F; FIGS. 12A-12E), except 0.282×10^6 PBMC lymphocyte cells in 198.5 μl was used, and the experimental incubation time was extended to 120 hr.
Briefly, to generate the data in Tables 8A and 8B, the compounds were tested in a [^3H] thymidine uptake experiment using PBMC human lymphocytes obtained from the New York Blood Center. PBMC human lymphocytes were exposed to compounds at 0.03, 0.1, 0.3, and 1.0 μM for 24 hours, and examined for increased [^3H] thymidine uptake. Human lymphocytes were also exposed to compounds for an extended time, e.g., 48 hrs and 72 hrs, instead of 24 hrs, in the [^3H] thymidine uptake assay, and examined to determine the extent of increased [^3H] thymidine uptake to determine if extended exposure will further increase the immune-enhancing effects of the compounds. Increased [^3H] thymidine uptake is interpreted as increased DNA synthesis, which indicates cell growth and division. In the case of immune system cells, this should result in an immune-enhancing effect. The compounds are compared by their IC50 values and/or their effect on [^3H] thymidine uptake at a given concentration and/or time point.

[4] = test system: CCRF-CEM/VBL100 vinblastine-resistant cells; test: In vitro cytotoxicity against vinblastine-resistant CCRF-CEM subline; format: cell-based, human; settings: for IC50: Homo sapiens, CCRF-CEM, 72 h, CCK-8, 72-hr incubation, read-out: IC50 CCRF-CEM/Vinblastine
Protocol: The cytotoxicity IC50 of each compound was measured with the XTT assay using the 2,3-bis(2-methoxy-4-nitro-5-sulfophenyl)-5-[(phenylamino)carbonyl]-2H-tetrazolium hydroxide (XTT) microculture method as described in Scudiero et al., Cancer Res., 48:4827 (1988), the contents of which are hereby incorporated by reference in their entirety. The CCK-8 assay is a cell counting kit-8 (CCK-8) tetrazolium assay using a 96-well microplate (Dojindo Molecular Technologies, Inc., Rockville, Md.) (M. Ishiyama et al., Biol. Pharm. Bull. 19: 1518, 1996). Absorbance was measured by Powerwave a XS microplate spectrophotometer. This method described is considered a general method in vitro cytotoxicity studies.
(§1) The data in Tables 2X, 3A-E, 4, 5, and 6 were obtained using the cell counting kit-8 (CCK-8) tetrazolium assay in a 96-well microplate. Five to seven concentrations of each compound in triplicate were used, and the IC50 values were determined by CompuSyn software automation (Chou T C. and Martin N. ComboSyn, Inc., 2006) based on the median-effect equation and plot (Chou T C. J. Theor. Biol. 59:235-276, 1976; Chou T C. Pharmacol. Rev. 58: 621-681, 2006). […] The r value defines the correlation coefficient of the median-effect plot which signifies the conformity to the mass-action law principle (Chou T C. J. Theor. Biol. 59:235-276, 1976; Chou T C. Pharmacol. Rev. 58:621-681, 2006). These parameters were determined by CompuSyn simulation (available at http://www.combosyn.com).
CCRF-CEM human T-cell acute lymphoblastic leukemia cells and the corresponding vinblastine-resistant cells (CCRF-CEM/VBL100) were cultured at an initial density of 5×10^4 cells per milliliter. The cultured cells were maintained in a 5% CO2-humidified atmosphere at 37° C. in RPMI medium 1640 (GIBCO/BRL) containing penicillin (100 units/mL), streptomycin (100 μg/mL, GIBCO/BRL), and 10% heat-inactivated fetal bovine serum. The cytotoxicity of each Compound of the invention was measured using the 2,3-bis(2-methoxy-4-nitro-5-sulfophenyl)-5-[(phenylamino)carbonyl]-2H-tetrazolium hydroxide (XTT) microculture method as described in Scudiero et al., Cancer Res., 48:4827 (1988), the contents of which are hereby incorporated by reference in their entirety.
(§2) Absorbance was measured by Powerwave XS microplate spectrophotometer.

[5] = test system: human mammary carcinoma MX-1 xenograft; test: Therapeutic effect and body weight in nude mice bearing MX-1 xenograft, single agents
Protocol: FIGS. 1A and 1B show the therapeutic, anti-cancer effects of various dosage regimens of panaxytriol and Compound (A), respectively, given by i.v. injection in nude mice bearing human mammary carcinoma MX-1 xenograft tumors, which is an in vivo model for breast cancer. […] The compounds were administered starting on day 8.
An in vivo assay uses male athymic nude mice bearing the nu/nu gene (6 weeks of age or older, weighing between 20 and 22 g, obtainable from NCl, Frederick, Md.) into which one or more human tumor xenografts are been implanted.
Nude mice having human mammary carcinoma xenograft MX-1 were treated with panaxytriol or Compound (A) at various dosages through the slow i.v. infusion protocol by Chou et al. (Chou, T. C., et al, Proc. Natl. Acad. Sci. U.S.A. 95: 15798 (1998), the contents of which are herein incorporated by reference in their entirety).

[6] = test system: HCT-116 colon carcinoma; test: Cytotoxicity against solid tumor cells, CCK-8, 72 hrs (Table 4); format: cell-based; settings: Homo sapiens
Protocol: (§3) Compounds are also evaluated against A-549 lung carcinoma and SK-OV-3 ovarian adenocarcinoma cell lines using the methodology as for Table 3. The potency order for the compounds may vary in different tumor cell lines. […] Absorbance was measured using a Powerwave XS microplate spectrophotometer.

[7] = test system: MX-1 mammary carcinoma; test: as above; format: cell-based; settings: Homo sapiens
Protocol: as §3

[8] = test system: SK-OV-3 ovarian adenocarcinoma; test: Cytotoxicity against solid tumor cells (Table 4); format: cell-based; settings: Homo sapiens, CCK-8, 72 hrs
Protocol: as §3

[9] = test system: A-549 lung carcinoma; test: Cytotoxicity against solid tumor cells (Table 4); format: cell-based; settings: Homo sapiens, A549, CCK-8, 72 hrs
Protocol: as §3

[10] = test system: CCRF-CEM human T-cell acute lymphoblastic leukemia cells; test: In vitro cytotoxicity against CCRF-CEM (XTT / CCK-8 tetrazolium assay, 72 hr); settings: for IC50: Homo sapiens, CCRF-CEM
[11] = test system: CCRF-CEM subline resistant to TAXOL; test: In vitro cytotoxicity against TAXOL-resistant CCRF-CEM subline; format: cell-based, human; settings: Homo sapiens, CCRF-CEM; Table 3D; CCK-8, 72-hr incubation; read-out: IC50 CCRF-CEM/TAXOL
Protocol: as §1, §2

[12] = mouse, in vivo
Protocol: The experimental procedure for FIG. 14 was carried out similarly to that in FIG. 1. * means P<0.1 and ** means P<0.05. Body weight was calculated as described for FIGS. 1 and 4-7.
The experiments were performed as indicated for FIG. 14, with Compound (K) being administered orally. Compound K was administered on the days indicated by the arrows at the top of the graph, and paclitaxel was administered on the days indicated by the arrows on the bottom of the graph. Body weight was calculated as described for FIGS. 1, 4-7, 14 and 15. * means P<0.1 and ** means P<0.05.

[13] = test system: human mammary carcinoma MX-1 xenografts; settings: nude, mouse, in vivo
[14] = 72 h, read-out: IC50 CCRF-CEM, Table 3D, CCK-8, 72-hr incubation
[15] = read-out: IC50 (in μM), cytotoxic potency against cancer cell line growth in vitro, Table 3C, cell line not given

Row | SMILES | reported CD value [1] | reported inducer potency [1] | IC50 ([4]; Table 3D) | IC50 [6] | IC50 [7] | IC50 [8] | IC50 [9] | IC50 [10, 14] | IC50 [11] | IC50 [10, 15] | further results
1 | C=Cc1c(C)c2cc3nc(c4c5[n-]c(cc6nc(cc1[n-]2)C(C)=C6CC)c(C)c5C(=O)[C@@H]4C(=O)OC)[C@@H](CCC(=O)OC/C=C(\C)CCC[C@H](C)CCC[C@H](C)CCCC(C)C)[C@@H]3C.[Mg+2] [chlorophyll a] | 250 µM | 24,600 U/g | – | – | – | – | – | – | – | – | –
2 | C=C[C@@H](O)C#CC#CC[C@H]1OC(C)(C)O[C@@H]1CCCCCCC [Compound (A)] | – | – | 1120 nM | 1280 nM | 1920 nM | 3000 nM | 3950 nM | 0.803 µM | – | – | IC50 ([2]; Aug. 22, 2003 (Stored), same solution kept at −20° C. in DMSO, read-out: IC50 in μM CCRF-CEM): 2.12 µM; IC50 ([2]; Aug. 22, 2003 (Stored), same solution kept at −20° C. in DMSO, read-out: IC50 in μM CCRF-CEM/VBL): 2.37 µM; IC50 ([2]; Jul. 25, 2003 (Fresh), read-out: IC50 in μM CCRF-CEM): 1.21 ± 0.03 µM; IC50 ([2]; Jul. 25, 2003 (Fresh), read-out: IC50 in μM CCRF-CEM/VBL): 1.22 ± 0.15 µM; time of maximal stimulation of lymphocyte [3]: 120 h; cross-resistance to TAXOL or vinblastine ([4]; TAXOL- or vinblastine-resistant (MDR) sublines): do not appear to be cross-resistant to TAXOL or vinblastine; fold resistance in brackets (IC50 CCRF-CEM/VBL vs CCRF-CEM) ([4]; Table 3): 1.22 x; fold resistance (IC50 CCRF-CEM/VBL vs parent CCRF-CEM) ([4]; Table 3A): 1.4 fold; fold of cross-resistance (CCRF-CEM/Vinblastine vs parent cell line) ([4]; Table 3D, given as x or -fold): 1.4 fold; tumor suppression compared to the control tumor size ([5]; Day 24, i.v. injection Q2D, escalating doses from day 8, FIGS. 1A, 1B): 47.7%; antitumor effects against MX-1 xenografts ([5]; mouse, in vivo): antitumor effects; level inhibiting tumor growth (as low as) ([5]; mouse, in vivo): 10 mg/kg; anti-cancer activity in the in vitro cytotoxicity assay [10]: active against cancer
3 | CCCCCCC[C@H]1OC(C)(C)O[C@@H]1CC#CC#CC(=O)CC [Compound (J)] | – | – | 1190 nM | 1090 nM | 1470 nM | 13000 nM | 12600 nM | 0.83 ± 0.26 µM | 1720 nM | 0.83 µM | –
4 | CCCCCCC[C@H]1OC(C)(C)O[C@@H]1CC#CC#C[C@@H](O)CC [Compound (K)] | – | – | 3300 nM | 3170 nM | 3440 nM | 4030 nM | 1020 nM | 2.03 ± 0.13 µM | 3570 nM | 2.03 µM | stability (shelf life) ([2]; compared with Compound D): more stable than Compound D; reduction of paclitaxel-induced general toxicity and neurotoxicity compared with Compound D [12]: superior to Compound D; effect of oral administration on paclitaxel toxicity ([12]; po): orally effective in Reducing the Toxicity of paclitaxel and improving recovery after treatment
5 | C[S+]([O-])CCCCN=C=S (stereo not shown) [sulforaphane] | 0.2 µM | 188,000,000 U/g | – | – | – | – | – | – | – | – | –
6 | O=c1[nH]cc(F)c(=O)[nH]1 [Compound 5FU, 5-fluoro-uracil] | – | – | – | – | – | – | – | – | – | – | mice died [13]: 5/8
